Test results from patent US20100167260A1, “Use of N-Piperidine Derivative Compositions for Protecting Biological Systems” (MEDESTEA RESEARCH & PRODUCTION SPA, priority 2006, published 2010).

Experiments:
[1] = tested on: rabbit heart; assay: LDH levels in the perfusate of rabbit hearts after 1 h reperfusion
Method: (§1) The hearts were quickly excised from anesthetized animals (55 mg/kg body weight sodium pentobarbital; ten rabbits for each experiment group were used) flushed with the respective experimental solutions and placed in either cold (4° C.) Celsior and Celsior plus 5 mM MP1001 or Celsior plus GSH 5 mM for 24 hours. Because Celsior standard solution contains 3 mM reduced glutathione (GSH), comparative experiments in term of “total antioxidant power” using equimolar antioxidant amount (e.g. adding 5 mM MP1001 or 5 mM GSH to Celsior) were performed.
(§2) At the end of cold preservation, the organs were then reperfused in a Langerdoff working heart model with oxygenated Krebs-Henseleit buffer (120 mM NaCl, 25 mM NaHCO3, 4.9 mM KCl, 1.2 mM KH2PO4, 2.5 mM CaCl2, 1.25 MgSO4 and 10 mM glucose). The buffers were bubbled regularly with a mixture of O2 (95%) and CO2 (5%); the CO2 helped maintain the buffer at a physiological pH (7.4). In the mean time, the apparatus had extensive water-jacketing connected to a water heater that maintained buffers and hearts at 37° C. The buffers was filtered through a Gelman GA-4, 0.8 μm metrical, membrane before the use. […]
(§3) Lipid peroxidation was determined by quantification of the release of malondialdeyde (MDA) accumulated in cells which was used as biomarker, essentially according to Buege Y. A. & Aust S. G., Method Enzymol. […]

[2] = tested on: rabbit heart; assay: Carbonyl proteins in rabbit hearts after 1 h reperfusion
Method: as §1, §2, §3

[3] = tested on: rabbit heart; assay: Lipid peroxidation (MDA release) in rabbit hearts after 1 h reperfusion
Method: as §1, §2, §3

[4] = tested on: rabbit heart; assay: Rabbit heart cold preservation (24 h, 4° C.) and Langendorff reperfusion: developed pressure
Method: Male New Zealand rabbits (1.4-1.8 kg weight) were kept on a standard laboratory diet supplemented with “Nossan pellet” (both the animals and pellets are available from Nossan Company, Milan, Italy) and were housed for three weeks (relative humidity 50% ±10%, temperature 22° C.±1° C. and in a light/darkness cycle of 12 hours/12 hours, with first light at 7.30 a.m.) prior to the experiments; food and water were available ad libitum.
The hearts were quickly excised from anesthetized animals (55 mg/kg body weight sodium pentobarbital; ten rabbits for each experiment group were used) flushed with the respective experimental solutions and placed in either cold (4° C.) Celsior and Celsior plus 5 mM MP1001 or Celsior plus GSH 5 mM for 24 hours. Because Celsior standard solution contains 3 mM reduced glutathione (GSH), comparative experiments in term of “total antioxidant power” using equimolar antioxidant amount (e.g. adding 5 mM MP1001 or 5 mM GSH to Celsior) were performed. […]
After 24 hours of cold preservation and reperfusion for 1 hour, the developed pressure (as a measure of protection) of the hearts preserved in Celsior (standard/control) was a mean of 34±9.55 mmHg. […] We determined that this level of recovery was not sufficient and proceeded to add the cardioprotective antioxidant MP1001 (5 mM) or GSH (5 mM, to have a final, equimolar 8 mM “antioxidant concentration”).

[5] = tested on: rabbit heart; assay: Histopathological analysis of rabbit hearts after 1 h reperfusion; conditions: hearts stored in Celsior plus 5 mM MP1001 as compared to GSH
Method: as §1
as §2, with “use. A saline-filled latex balloon connected through a pressure transducer to a polygraph recorder was inserted into the left ventricle through a left atriotomy and secured by a suture to the mitrial annulus.” for “use.”

[6] = rabbit hearts, 24 h cold preservation in Celsior (additive 5 mM where given)

Compound | effect on LDH vs standard Celsior ([1]; 5 mM supplement in Celsior) | effect on carbonyl proteins vs standard Celsior ([2]; 5 mM supplement in Celsior) | effect on lipid peroxidation vs standard Celsior ([3]; additional 5 mM in Celsior) | protection (developed pressure) compared to standard Celsior solution ([4]; 5 mM added to Celsior (8 mM GSH final), 24 hours cold preservation, 1 h reperfusion) | LDH levels in the perfusate [1, 6] | histopathological analysis (myocyte injury, edema, endotelial damage) [5] | carbonyl proteins [2, 6] | lipid peroxidation (malondialdeyde, MDA) [3, 6] | developed pressure ([4]; rabbit hearts, 24 hours cold (4° C.) preservation in Celsior (additive 5 mM where given), reperfusion for 1 hour) [mmHg]
N[C@@H](CCC(=O)N[C@@H](CS)C(=O)NCC(=O)O)C(=O)O [GSH, reduced glutathione, reference compound] | not modified | not modified | did not significantly modify this parameter | did not provide any additional protection |  |  |  |  | 
CC1(C)CC(OC(=O)CCCCCCCCC(=O)OC2CC(C)(C)N(O)C(C)(C)C2)CC(C)(C)N1O [MP1001, bis(1-hydroxy-2,2,6,6-tetramethyl-4-piperidinyl)decandioate] |  |  |  |  | 0.3±0.1 | Hearts sustained less injury by all criteria examined | 48±11 | 0.31±0.10 | 88±9.02
